Values of other authors as cited in US20100003224A1, “Combination Therapy” (GENZYME CORPORATION, priority 2006, published 2010).

Key:
[1] = tested on: pre-B-ALL cells; conditions: in vitro
[2] = tested on: collagen-induced arthritis; conditions: mice
[3] = tested on: progenitor cells; conditions: single agent
[4] = tested on: white blood cell counts; conditions: WO 00/45814
[5] = tested on: pre-B-ALL cells; conditions: in vitro; remark: listed apart in the source
[6] = tested on: multiple sclerosis; conditions: in vivo

Compound	cytotoxic and antiproliferative effects of vincristine and dexamethasone [1]	effects in collagen-induced arthritis models [2]	mobilization of progenitor cells [3]	white blood cell counts [4]	SDF-1 induced chemotaxis of pre-B-ALL cells into bone marrow stroma layers [5]	efficacy in the treatment of multiple sclerosis [6]
c1cc(CN2CCCNCCNCCCNCC2)ccc1CN1CCCNCCNCCCNCC1 [AMD3100, 1,1′-[1,4-phenylene-bis(methylene)]-bis-1,4,8,11-tetraazacyclotetradecane]	enhanced	protective effects	mobilizes progenitor cells	elevate white blood cell counts	blocked	–
natalizumab: humanized monoclonal antibody against α4 (anti-VLA-4 antibody)	–	–	–	–	–	demonstrated efficacy
